How the values were obtained:
[1] = system: MDA-MB231-luc-D3H2LN cells; test: Toxicity assay under normal cell culture conditions (MTS), MDA cells; format: cell-based, human; details: MDA-MB231-luc-D3H2LN cells, MEM+10% FBS, 72 h incubation, MTS
Procedure: (§1) In order to detect possible toxic effects, all compounds are tested in parallel in a viability assay. The viability assay is performed in parallel on serum-starved cells (as in the invasion assay) vs. cells under normal culture conditions (10% FBS).
(§2) Toxicity Assays (Under Normal Cell Culture Conditions):
(§3) Compounds were prepared as for the invasion assay, and then added to either MDA-MB231-luc-D3H2LN cells (2000/well) under normal culture conditions (MEM+10% FBS), or human PBMC (75000/well, in RPMI+10% FBS+IL-2) in standard 96-well tissue culture plates. After 72 h incubation, a standard MTS assay was performed according to the manufacturer's instructions (Promega Ref. G3581). Compounds were tested at various concentrations (concentration-response curves) in order to determine the concentrations at which 50% toxicity is obtained.

human PBMC = test: Toxicity assay under normal cell culture conditions (MTS), PBMC; format: cell-based; details: human PBMC, RPMI+10% FBS+IL-2, 72 h incubation, MTS
Procedure: as §2, §3

[2] = system: MDA-MB231-luc-D3H2LN cells; test: Invasion of MDA-MB231-D3H2LN cells into collagen (example 15 = procedure 2, 48 h drug pre-incubation); format: cell-based; details: concentration giving 50% of the anti-invasive effect of 10 μM Y-27632; 48 h pre-incubation, 24 h with 5% FBS; read-out: MDA: Inhib. of invasion: 0.5 × eff. of 10 μM Y-27632 at (μM) av
Procedure: Effect of Drug Compounds on Invasion of MDA-MB231-D3H2LN Cells into Collagen
Preparation of cells at the bottom of a collagen gel: Cells are suspended in a liquid collagen solution (4° C.), distributed into BSA-coated wells, and then collected at the bottom of the wells by centrifugation. The collagen is then solidified by incubation at 37° C. The BSA coating improves the adhesion of the collagen gel.
Pre-treatment with the compounds to be tested: Concentrated drug solutions are then added on top of the collagen, and cells are pre-incubated for 48 h with the drugs at low serum conditions (0.025% FBS).
Stimulation of invasion: Medium with 5% FBS is then added in order to stimulate invasion of the cells into the collagen gel.
(§4) Viability assay, fixation and staining: Following another 24 h incubation, an MTS assay is performed directly on the cells in the collagen. Then, cells are fixed and nuclei are stained.
Analysis: Finally, plates are analyzed using an automated microscope. Fluorescent beads that have been included into the BSA coating serve to detect the bottom of the wells. Pictures of the stained nuclei are taken at the same level (0 μm) as well as 25 μm and 50 μm above.
Negative control: No drug (just DMSO at equivalent concentration). Positive control: 10 μM Y-27632. To avoid edge effects, cells are added only to the 60 central wells B2-G11; lines A and H receive only collagen without cells (blank for the MTS assay) columns 1 and 12 remain free. Each drug is tested at least in triplicate. The positive and negative controls should be tested in several triplicates at different positions on each plate. Typical plate map (−=negative control, +=positive control, 1-12=12 different test conditions, i. e. different drug compounds or concentrations):
Preparation of 4× concentrated drug solutions in MEM+0.1% FBS+2% Lutrol E-400+0.8% DMSO: Mix each 620 μl MEM+0.1% FBS+2% Lutrol E-400 with each 4 μl DMSO+each 1 μl of the 50 mM compound stock solutions (yielding […] and 0.8% DMSO). If the desired final compound concentration is <5 μM, then further dilute in MEM+0.1% FBS+0.8% DMSO. Negative control: MEM+0.1% FBS+2% Lutrol E-400+0.8% DMSO without any drug. Preparation of the positive control: Mix 4.5 ml MEM+0.1% FBS+2% Lutrol E-400+[…] with 36 μl 5 mM Y-27632 (freshly thawed aliquot) (yielding 40 μM).
add each 33 μl/well of the 4× concentrated drug solutions in MEM+0.1% FBS+2% Lutrol E-400+0.8% DMSO to the corresponding wells (yields 1× concentrated drugs in MEM+0.025% FBS+0.5% Lutrol E-400+0.2% DMSO final)
incubate 48 h at 37° C./5% CO2
incubate 24 h at 37° C./5% CO2
for each well, calculate the mean invasion distance of the counted cells: (25 μm×number of cells at 25 μm+50 μm×number cells at 50 μm)/sum of cells at 0, 25 and 50 μm
invalidate any replicate with a CV≥50% (compound to be re-tested, or assay to be repeated if CV≥50% for the untreated negative control or the compound Y-27632-treated positive control). Y27632 is a selective inhibitor of the Rho-associated protein kinase p160ROCK of the following formula
validate the assay only if the mean invasion distance of the cells treated with 10 μM Y-27632 (positive control) is decreased by ≥40% as compared to the untreated negative control
(§5) Final analysis: Determine the concentration at which a given compound has 50% of the anti-invasive effect of the positive control (10 μM Y-27632). Determine the toxicity (=loss of viability) of the compound under these conditions.
Here, invasion (into collagen) is the concentration of the compound necessary to reach 50% of the inhibition effect compared to 10 μM Y-27632.
Standard operating procedure 2 is exactly the same as the procedure as described in example 15.

[3] = system: MDA-MB231-luc-D3H2LN cells; test: Viability (MTS) assay on the cells in collagen under invasion assay conditions; format: cell-based, human; details: loss of viability at the concentration giving 0.5 × effect of 10 μM Y-27632, invasion assay conditions
Procedure: as §4, §1
Viability Assay: MTS Assay:
add each 33 μl/well of the MTS reagent, incubate 3-4 h at 37° C./5% CO2
read absorbance at 490 nm (proportional to the viability)
calculate the background-corrected signals by subtracting the means of the background signals in absence of cells from the corresponding signals in presence of cells
normalize the background-corrected signals with respect to the mean signal of the negative controls (no drug) (viabilities are thus expressed in “% of control”)
as §5

SMILES | MDA tox: 50% tox. at (μM) av [1] | PBMC tox.: 50% tox. at (μM) av (human PBMC) | IC50 [2] [µM] | (+ MDA tox. under these cond.) % tox [3] [%]
CN(C(=O)c1cccc(Nc2cccc(C(=O)NCCCN3CCCCC3)c2)c1)c1ccncc1 [Compound 21, N-methyl-3-((3-((3-(piperidin-1-yl)propyl)carbamoyl)phenyl)amino)-N-(pyridin-4-yl)benzamide] | >100 µM | >100 µM | 2.05 | <10
O=C(Nc1ccncc1)c1cccc(Nc2cccc(S(=O)(=O)NCCN3CCCCC3)c2)c1 [Compound 10, 3-((3-(N-(2-(piperidin-1-yl)ethyl)sulfamoyl)phenyl)amino)-N-(pyridin-4-yl)benzamide] | 45 µM | 29 µM | 0.53 | <10
CCN(CC)CCCNC(=O)c1cccc(Nc2cccc(C(=O)Nc3ccncn3)c2)c1 [Compound 25, N-(3-(diethylamino)propyl)-3-((3-(pyrimidin-4-ylcarbamoyl)phenyl)amino)benzamide] | 46 µM | 88 µM | < 0.5 | <10
CCN(CC)CCCNC(=O)c1cccc(Nc2cccc(C(=O)N(C)c3ccncc3)c2)c1 [Compound 17, 3-((3-((3-(diethylamino)propyl)carbamoyl)phenyl)amino)-N-methyl-N-(pyridin-4-yl)benzamide] | >100 µM | >100 µM | 3 | <10
CCN(CC)CCCNC(=O)c1ccnc(Nc2cccc(C(=O)Nc3ccncc3)c2)c1 [Compound 33, N-(3-(diethylamino)propyl)-2-((3-(pyridin-4-ylcarbamoyl)phenyl)amino) isonicotinamide] | 118 µM | 130 µM | 2.13 | <10
CCN(CC)CCCNC(=O)c1cccc(Nc2cccc(C(=O)N(C)c3ccncc3)c2)n1 [Compound 37, N-(3-(diethylamino)propyl)-6-((3-(methyl(pyridin-4-yl)carbamoyl)phenyl)amino)picolinamide] | >>100 μM | >>100 μM | 3.75 | <10
CN1CCN(CCCNC(=O)c2ccnc(Nc3cccc(C(=O)Nc4ccncc4)c3)c2)CC1 [Compound 34] | 98 µM | >100 µM | 0.4 | <10
CN1CCN(CCCNC(=O)c2ccnc(Nc3cc(C(=O)Nc4ccncc4)ccn3)c2)CC1 [Compound 45, N-(3-(4-methylpiperazin-1-yl)propyl)-2-((4-(pyridin-4-ylcarbamoyl)pyridin-2-yl)amino)isonicotinamide] | >100 µM | >100 µM | 0.38 | <10
O=C(NCCCN1CCCC1)c1cccc(Nc2cc(C(=O)Nc3ccncc3)ccn2)c1 [Compound 50, N-(pyridin-4-yl)-2-((3-((3-(pyrrolidin-1-yl)propyl)carbamoyl)phenyl)amino) isonicotinamide] | ≥100 µM | >100 µM | 1.88 | <10
CCN(CC)CCCNC(=O)c1ccnc(Nc2cc(C(=O)Nc3ccncc3)ccn2)c1 [Compound 44, N-(3-(diethylamino)propyl)-2-((4-(pyridin-4-ylcarbamoyl)pyridin-2-yl)amino)isonicotinamide] | >100 µM | >100 µM | 1.15 | <10
CN1CCN(CCCNC(=O)c2ccnc(Nc3cccc(C(=O)Nc4ccncn4)c3)c2)CC1 [Compound 42, N-(3-(4-methylpiperazin-1-yl)propyl)-2-((3-(pyrimidin-4-ylcarbamoyl)phenyl)amino)isonicotinamide] | ≥100 µM | >100 µM | 0.2 | <10

Reference: US9969715B2, “Compounds useful for treating cancer” (ABIVAX, priority 2012, dated 2018)
